Row | Structure (SMILES) | melting point [°C]
1 | C[C@@H]([C@@H](O)c1ccc(OCc2ccccc2)cc1)N1C2CCC1CC(=Cc1ccccc1)C2 (relative stereo) | 145 to 148
2 | Cc1cc(SC2=C(O)CC(CCc3ccc(O)cc3)(C3CCCCC3)OC2=O)c(C(C)(C)C)cc1OS(=O)(=O)c1ccc(C#N)cc1 (centres undefined) | 112
3 | CC(C)c1n[nH]c2c(O)ncnc12 | 302 to 304
4 | CCc1c(C(C#N)c2cc(C)cc(C)c2)[nH]c(=O)[nH]c1=O (centres undefined) | 105 to 107
5 | Cc1oc(-c2ccccc2)nc1COc1ccc(Cn2cc(CCC(=O)O)cn2)cc1 | 124 to 125
6 | CNc1ccc(C=Cc2ccc(N)cc2)cc1 | 144 to 145
7 | O=C(Cn1nc(-c2ccccc2O)nc1-c1ccccc1O)NCCOCCO | 173 to 174
8 | CN(C)C(=O)n1cc(C(=O)C2CSC(c3cccnc3)N2)c2ccc(OCc3ccc(F)cc3)cc21 (centres undefined) | 71 to 74
9 | Cc1ccc2c(NCc3ccc(NC(=O)C4CCN(Cc5ccccc5)CC4)cc3)nc(N(C)C)nc2c1 | 100
10 | CCCCc1oc2ccccc2c1C(O)c1ccc(-c2ccc(OCC(=O)O)cc2)cc1 (centres undefined) | 111 to 113
11 | N#Cc1ccc2c(c1)Sc1cc3c(cc1C=C2)CCC3 | 142 to 143
12 | CC(C)c1nn(-c2ccc(C(F)(F)F)cn2)cc1C=O | 89 to 90
13 | COCN1c2cc(CCl)ccc2Sc2nccnc21 | 125 to 126
14 | O=C(c1ccc(C2CCCCC2)cc1)N1Cc2ccccc2Nc2ccccc21 | 175 to 176
15 | Cc1ncc2n1-c1ccccc1C(c1ccccc1)=NC2 | 180 to 182
16 | Clc1ccc(C2CNCCN2)cc1Cl (centres undefined) | 74 to 76
17 | CCOP(=O)(OCC)c1cc2c(c(C)c1-c1c(OC)ccc3ccccc13)COC2 | 136 to 138
18 | COc1nc(C)cnc1N(C(=O)OCC(C)C)S(=O)(=O)c1cccnc1-c1ccc(CBr)cc1 | 125 to 128
19 | CN1C(=O)CCC(C)(C)c2cc(NC(=O)c3ccc(C(=O)O)cc3)ccc21 | > 275
20 | Cc1nnc(-c2ccc3occ(-c4ccc(S(=O)C(C)C)cc4)c3c2)o1 (centres undefined) | 157 to 158
21 | CCCCOc1c2c(nc3c1cnn3CC)CCc1ccccc1C2=O | 113 to 115
22 | COc1cccc(Cc2cc3cccc(-c4cccc(C(=O)O)c4)c3o2)c1 | 127 to 129
23 | CC1(O)CCC2C3CCC4=CC(=O)CCC4C3C(=CF)CC21C (centres undefined) | 127 to 131
24 | CCCn1nc2c(N)nc3ccccc3c2c1CCCc1cc(C)no1 | 183 to 184
25 | CCCn1cnc(COc2nn3c(-c4ccccc4)nnc3cc2-c2ccccc2)n1 | 212 to 214

Row | Structure (SMILES) | melting point [°C]
26 | COC(=O)C12OC1(Cc1ccc(Cl)cc1)CCC2(C)C (centres undefined) | 86 to 87
27 | COc1ccc(C(=O)C=Cc2cc(Br)ccc2O)cc1 | 177 to 179
28 | BrC(c1ccccc1)(c1ccccc1)C1(c2ccccc2)OCCO1 | 206
29 | CCOC(=O)c1[nH]c2cc(Cl)cc(Cl)c2c1NCS(=O)(=O)c1ccccc1 | 244 to 245
30 | Cc1cc(C)c2c(-c3ccc(C(C)C)cc3)coc2c1 | 44 to 45
31 | C(=C1/CCCc2ccccc21)/c1cnc[nH]1 | 136 to 138
32 | COc1ccc(C)c(N2CCN(C(=O)Nc3cc4ccccc4nc3OC)CC2)c1 | 128 to 130
33 | O=C(c1ccc(Cc2ccc(F)cc2)o1)c1occ(Br)c(=O)c1O | 191 to 192
34 | CCN(CC)C(=O)Cn1c(=N)sc2cc(OC(F)(F)F)ccc21 | 223
35 | Cn1cncc1C(c1ccc(Cl)cc1)c1ccc2c(c1)C(c1cccc(Cl)c1)SCc1nnnn1-2 (centres undefined) | 162
36 | CCOC(=O)C(=CNc1ncnc2ccc(NC(=O)CC(C)(C)C)cc12)C(=O)OCC | 133 to 135
37 | COC(=O)CC(O)CP(=O)(C#Cc1c(C(C)C)c2n(c1-c1ccc(F)cc1)CCCC2)OC (centres undefined) | 100 to 101
38 | O=C1Nc2ccc(Br)cc2C2(c3ccccn3)OCCN12 (centres undefined) | 241 to 242
39 | COc1ccc2c(c1)C(CCNC(C)=O)CN(Cc1ccccc1)C2 (centres undefined) | 123 to 125
40 | CN1CCC(OC(c2ccccc2)c2nc3ccccc3s2)CC1 (centres undefined) | 115
41 | Cc1oc2ccccc2c1C(=O)NCc1ccc2cc(O)ccc2c1 | 195 to 198
42 | CC(C)OP(=O)(CCCCC1(C(=O)NCC(F)(F)F)c2ccccc2-c2ccccc21)OC(C)C | 91 to 94
43 | Cc1ccc(-c2cn(C)c(-c3ccc(C)s3)n2)s1 | 138 to 140
44 | O=C1c2cc(OCc3ccccc3)ccc2OCC1Oc1ccccc1 (centres undefined) | 100 to 102
45 | CCC(CC)N(Cc1ccc(C(=O)O)cc1)S(=O)(=O)c1ccc(OC)cc1 | 86 to 87
46 | CC(=O)C(=NNc1ccc(C)cc1)Sc1ccc(Cl)cc1 | 133 to 136
47 | COc1ccc(C)cc1NC(=O)Nc1ccc(N2CCN(C(=O)Nc3ccccc3)CC2)cc1 | 221
48 | CN(Cc1ccccc1)C(=O)Cn1c(-c2ccc(Cl)cc2)nc2cccnc21 | 87 to 89
49 | CS(=O)(=O)Nc1cc2occc(=O)c2cc1Oc1ccc(F)cc1F | 182 to 183
50 | Cc1ccc(O)c(NCCCN2CCN(C(c3ccccc3)c3ccccc3)CC2)c1 | 178 to 179

Row | Structure (SMILES) | melting point [°C]
51 | CCOC(=O)c1cc2cc(NC(=O)OCc3ccccc3)ccc2nn1 | 205
52 | Cn1nc(N)c2c(-c3ccccc3)cc(N3CCOCC3)nc21 | 149 to 152
53 | Nc1ccc(NC(=O)N(C[C@H]2CC[C@H](CN(C(=O)Nc3ccc(N)cc3)C3CCCCC3)CC2)C2CCCCC2)cc1 | 185 to 188
54 | COc1ccc2c(c1)C(C(=O)O)CC2 (centres undefined) | 101
55 | Cc1nc(CN(C)C)n(-c2ccc(Cl)cc2C(=O)c2ccccc2Cl)c1CN1C(=O)c2ccccc2C1=O | 121 to 150
56 | O=c1[nH]c(=O)n(Cc2cccc(OCc3noc(-c4ccc(C(F)(F)F)cc4)n3)c2)o1 | 90 to 91
57 | c1ccc2c(c1)COC2=N[C@@H]1CCc2ccccc21 | 79 to 80
58 | CN(C)CC1CCCN(c2cc3ccccc3c(=O)[nH]2)C1 (centres undefined) | 141 to 143
59 | O=C(O)CCc1ccc(OCCCCc2cc(-c3ccc(C(F)(F)F)cc3)no2)cc1 | 130 to 131
60 | CC(C)OC(=O)C=Cc1ccc(N)cc1 | 78 to 80
61 | CC(=O)c1ccc(CCNS(=O)(=O)c2ccc(C)cc2)cc1 | 124 to 126
62 | NC(=O)NNCc1ccc(OCCc2coc(-c3ccccc3)n2)cc1 | 192 to 196
63 | N#Cc1ccc2oc3cc(O)ccc3c2c1 | 270 to 271
64 | CCN(CC)CCCOc1ccc(-c2nnc(CSCCOc3ccccc3)o2)cc1 | 27 to 31
65 | CC(=O)c1c(NC(=O)c2ccc(C)cc2)cccc1C(F)(F)F | 171
66 | CCOC(=O)c1c(C(F)(F)F)nsc1SC | 64 to 65
67 | CN(CCO)C(=O)c1cc2ccccc2[nH]1 | 141 to 142
68 | O=C(O)CCSC(c1ccccc1CCCCCCCCc1ccccc1)C(O)C(=O)O (centres undefined) | 91 to 92
69 | Nc1n[nH]c2c(C(F)(F)F)cccc12 | 101 to 102
70 | Cn1ccnc1Sc1ccc(Cl)cc1[N+](=O)[O-] | 143 to 145
71 | Cc1cc2c(c3ccc(=O)[nH]c13)OC(CNC=O)C2 (single isomer, unassigned; (+)) | 282 to 284
72 | CCOc1cc(N)c(Cl)cc1C(=O)NC[C@H]1CN(CC2CCN(C(=O)N(C)OC)CC2)CCO1 | 127 to 129
73 | CS(=O)(=O)c1ccc(C(CC2CCCC2)C(=O)Nc2ccc(C(=O)O)cn2)cc1 (centres undefined) | 191 to 193
74 | CNc1c(F)cc2c(=O)c(C(=O)O)cn(-c3ccc(F)c(O)c3)c2c1C | > 280
75 | CCOC(=O)c1cnn(-c2c(Cl)cc(Cl)cc2Cl)c1C | 112 to 113

Row | Structure (SMILES) | melting point [°C]
76 | CC1(C)CN2C(=NS(=O)C2=Nc2ccc(Cl)cc2)S1 (centres undefined) | 121 to 124
77 | CCCCCCn1cnc2cnc3ccccc3c21 | 75 to 77
78 | O=C1c2ccccc2C(=O)N1c1ccc(N2C(=O)c3ccccc3C2=O)c(O)c1 | > 300
79 | CCOC(=O)c1ccc(NCc2ccc(OC)cc2)cc1 | 128 to 130
80 | COc1cccc2c1nc(C(F)F)n2-c1nc(N2CCOCC2)c2ncn(-c3cccnc3)c2n1 | 229 to 231
81 | COc1ccccc1CN[C@H]1CCCN[C@H]1c1ccsc1 (relative stereo) | > 239
82 | CNCCSC1=Cc2ccccc2Sc2ccc(O)cc21 | 147 to 149
83 | CC(C)(C)[Si](C)(C)Oc1ccc(-c2ccc(C3CCC(c4c(F)cccc4F)=N3)cc2)cc1 (centres undefined) | 33
84 | Cc1c(C)c2c(c(C)c1N)CC(C)(CN1CCC(CCc3ccccc3)CC1)O2 (centres undefined) | 91 to 92
85 | CCc1cc2c(c(CC)n1)CCC(=O)N2 | 90 to 94
86 | CNc1c(F)cc2c(=O)c(C(=O)O)cn(-c3cc(N)c(F)cc3F)c2c1C | 225 to 228
87 | COc1ccc2c(ccn3c(C)nnc23)c1 | 183 to 184
88 | CC(=O)Oc1c(C)c(C)c2c(c1C)C(c1ccc(F)cc1)C(C)(C)O2 (centres undefined) | 86 to 87
89 | Cc1oc(-c2cc3ccccc3s2)nc1COc1ccc(CCCCn2cncn2)cc1 | 131 to 132
90 | COCOc1c(CCO)c(OC)c(OCOC)c(CCCCCc2c(OC)c(OCOC)c(CCO)c(OC)c2OCOC)c1OC | 68 to 70
91 | C=CCN1C(=O)c2ccccc2Oc2nc(Cl)ccc21 | 110 to 112
92 | Cn1ncc(C(=O)c2ccc(S(C)(=O)=O)cc2Cl)c1O | 272 to 275
93 | O=CC=C(c1ccccc1)c1ccccc1 | 45 to 46.5
94 | O=C(Nc1ccc2c(c1)CCC(CCN1CCCC1)=C2)c1ccc(-c2ccc(Cl)cc2)cc1 | 207 to 209
95 | CC1CCCC(C)N1C(=O)C=Cc1ccc(C(F)(F)F)cc1 (centres undefined) | 89 to 91
96 | COc1ccc(-c2cc3ccc(OC)cc3n2C)cc1 | 163 to 166
97 | N#Cc1c[nH]c(-c2ccccc2)c1 | 150 to 151
98 | COc1c(Nc2ncc(Cl)c(Nc3ccccc3S(=O)(=O)N3CCCC3)n2)ccc2c1CCCC(NCCO)C2 (centres undefined) | 79 to 82
99 | CC(C)(C)OC(=O)n1cc2c(c1C=O)OCCO2 | 94 to 95

Source: a melting point compilation (Tetko et al.; mined from patent text by program, amines drawn as free bases though some values may be those of a salt)
